Laboratory results: article PMC5827430, “Oxidation of the FAD cofactor to the 8-formyl-derivative in human electron-transferring flavoprotein” (The Journal of Biological Chemistry, 2018)
Positions count from the first letter of the chain named.

Key:
[1] = biological target: T1, hETF (human electron-transferring flavoprotein) (Homo sapiens, UniProt P13804+P38117, P38117:E165A); experiment: UV-visible absorption; steady-state kinetics of the FAD form; details: purified at pH 7.0
T1 construct: gene ETFA; mature heterodimer from E. coli BL21(DE3), pET-28a+ operon; alpha from Gln-20; N-terminal His6 on beta (tag kept)
T1 sequence (P13804 20-333): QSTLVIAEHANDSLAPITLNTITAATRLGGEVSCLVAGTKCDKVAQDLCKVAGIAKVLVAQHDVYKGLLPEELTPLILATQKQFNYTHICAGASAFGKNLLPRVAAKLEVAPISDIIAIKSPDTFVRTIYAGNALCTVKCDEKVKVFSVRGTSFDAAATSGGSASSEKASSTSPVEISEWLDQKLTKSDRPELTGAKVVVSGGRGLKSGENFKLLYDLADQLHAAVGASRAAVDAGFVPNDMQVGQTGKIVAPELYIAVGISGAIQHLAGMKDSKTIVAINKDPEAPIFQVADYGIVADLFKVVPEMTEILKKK
T1 sequence (P38117 1-255 E165A): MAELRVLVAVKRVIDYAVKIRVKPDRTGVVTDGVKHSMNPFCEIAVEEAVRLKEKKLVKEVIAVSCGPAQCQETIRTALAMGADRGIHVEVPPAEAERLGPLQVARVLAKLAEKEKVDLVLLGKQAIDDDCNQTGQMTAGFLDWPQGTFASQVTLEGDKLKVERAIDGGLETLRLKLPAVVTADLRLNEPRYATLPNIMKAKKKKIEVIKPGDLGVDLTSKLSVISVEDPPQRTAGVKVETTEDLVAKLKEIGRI

[2] = biological target: T2, hETF (human electron-transferring flavoprotein) (Homo sapiens, UniProt P13804+P38117, P13804:H286A); experiment: HPLC analysis of extracted cofactor; assay type: binding; details: purified at pH 7.0
T2 construct: gene ETFA; mature heterodimer from E. coli BL21(DE3), pET-28a+ operon; alpha from Gln-20; N-terminal His6 on beta (tag kept)
T2 sequence (P13804 20-333 H286A): T1 sequence (P13804 20-333) with H267A
T2 sequence (P38117 1-255): T1 sequence (P38117 1-255 E165A) with A165E

## Cc1cc2nc3c(=O)[nH]c(=O)nc-3n(C[C@H](O)[C@H](O)[C@H](O)COP(=O)(O)OP(=O)(O)OC[C@H]3O[C@@H](n4cnc5c(N)ncnc54)[C@H](O)[C@@H]3O)c2cc1C [FAD]
[1]
  UV-visible absorption; steady-state kinetics of the FAD form: FAD formylation was absent in the freshly purified variant βE165A
[2]
  HPLC analysis of extracted cofactor: the FAD cofactor was bound weakly to the αH286A variant
